In the assay the target is PAS domain-containing serine/threonine-protein kinase (Homo sapiens, UniProt Q96RG2). The assay is described as follows: FRET Assay : Table 3: In the presence of kinase and ATP, the Ulight-peptide is phosphorylated and captured by an anti-phospho-substrate antibody, which brings the Eu chelate donor and Ulight acceptor dyes into close proximity. Upon excitation at 340 nm, the Eu chelate transfers its energy to the Ulight dye, resulting in a fluorescent light emission at 665 nm. Titration of kinase at 1 mM ATP was achieved via the following protocol. After making serial three-fold dilutions of PASK (Invitrogen) in reaction buffer across the plate; 5 μl of kinase dilution and 5 μl substrate/ATP mix were added to the wells of the white Optiplate-384 (PerkinElmer). The contents of the plate were and incubated at RT for 1 h. The reaction was stopped by adding 5 μl of stop solution to each test well followed by mixing and incubation at RT for 10 minutes. 5 μl of detection mix (detection antibody diluted in detection buffer) was added; the contents of the plate were mixed and then incubated in the dark for 1 hour at RT. The signal was recorded at TR-FRET mode (665 nm/615 nm). The results were graphed to calculate the EC50.

A value given as a limit tells only on which side of the number the result lay.

PAS domain-containing serine/threonine-protein kinase, sequence (Q96RG2 whole entry, the tested form may be a part): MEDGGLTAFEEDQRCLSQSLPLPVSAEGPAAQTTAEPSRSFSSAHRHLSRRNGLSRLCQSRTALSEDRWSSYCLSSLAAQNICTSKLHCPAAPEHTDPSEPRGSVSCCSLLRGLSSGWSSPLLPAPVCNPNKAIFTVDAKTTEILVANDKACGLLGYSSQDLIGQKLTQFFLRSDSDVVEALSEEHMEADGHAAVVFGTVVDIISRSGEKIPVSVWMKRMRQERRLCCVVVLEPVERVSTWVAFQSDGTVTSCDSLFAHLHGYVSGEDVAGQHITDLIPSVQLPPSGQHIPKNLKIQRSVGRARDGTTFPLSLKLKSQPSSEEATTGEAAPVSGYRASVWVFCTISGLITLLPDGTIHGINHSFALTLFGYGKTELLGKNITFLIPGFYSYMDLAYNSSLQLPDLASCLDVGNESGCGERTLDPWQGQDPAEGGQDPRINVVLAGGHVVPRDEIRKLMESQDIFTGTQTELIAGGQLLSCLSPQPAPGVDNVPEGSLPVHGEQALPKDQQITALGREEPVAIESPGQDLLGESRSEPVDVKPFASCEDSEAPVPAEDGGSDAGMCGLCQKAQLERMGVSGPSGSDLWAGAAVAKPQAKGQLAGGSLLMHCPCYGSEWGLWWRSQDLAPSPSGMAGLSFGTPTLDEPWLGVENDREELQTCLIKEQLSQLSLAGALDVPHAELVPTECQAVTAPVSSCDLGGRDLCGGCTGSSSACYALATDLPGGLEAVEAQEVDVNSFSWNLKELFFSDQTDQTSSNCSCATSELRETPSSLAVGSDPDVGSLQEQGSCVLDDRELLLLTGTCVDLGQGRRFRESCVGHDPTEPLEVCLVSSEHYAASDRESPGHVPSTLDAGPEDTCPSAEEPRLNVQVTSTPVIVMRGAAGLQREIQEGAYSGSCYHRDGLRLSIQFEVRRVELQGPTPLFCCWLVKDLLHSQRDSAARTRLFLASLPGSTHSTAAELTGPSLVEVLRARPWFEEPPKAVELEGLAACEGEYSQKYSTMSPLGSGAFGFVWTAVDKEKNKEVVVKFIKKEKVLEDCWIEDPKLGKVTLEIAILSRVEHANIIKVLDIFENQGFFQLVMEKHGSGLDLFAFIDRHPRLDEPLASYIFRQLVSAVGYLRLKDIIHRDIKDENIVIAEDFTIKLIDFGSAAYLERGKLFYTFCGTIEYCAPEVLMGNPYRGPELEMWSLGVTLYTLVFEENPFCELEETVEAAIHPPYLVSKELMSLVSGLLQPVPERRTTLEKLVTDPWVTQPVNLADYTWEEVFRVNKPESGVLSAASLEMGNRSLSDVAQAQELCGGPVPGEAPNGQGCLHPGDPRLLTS

In general, IC50 refers to the concentration at which inhibition is half-maximal. Take `Nc1nn2c(c1-c1ccccn1)CC(c1ccc3c(c1)OC(F)(F)O3)=CC2=O`: the IC50 is below 10 µM.
